{"source": "patent US6472227B1", "about": "“Barbiturate assay, tracers, immunogens, antibodies and kit” (Abbott Laboratories, priority 1986, dated 2002)", "type_in_all_cases": "binding, sheep", "key": {"[1]": {"system": "antibodies raised against an immunogen having the structure shown in FIG. 29", "assay": "Fluorescence polarization immunoassay cross-reactivity, tracer of FIG. 31", "conditions": "Conc. Added 1200 ng/mL; tracer FIG. 31", "protocol": "(§1) The antibodies of the present invention are prepared by eliciting a response in sheep to the immunogens described supra. The immunogen is administered to animals or to in vitro cultures of immunocompetent cells by a series of innoculations, in a manner well known to those skilled in the art."}, "[2]": {"system": "antibodies raised against an immunogen having the structure shown in FIG. 29", "assay": "Fluorescence polarization immunoassay cross-reactivity in drug-free normal human urine, tracer of FIG. 30", "conditions": "for % CR / Conc. Found: Conc. Added 1200 ng/mL, tracer FIG. 30; for amount of the test compound found in the resulting human urine: 200 ng/mL added to drug-free urine, secobarbital standard", "protocol": "as §1\n(§2) The tracer formulation presently preferred is 150 nanomolar tracer in: 0.1 molar phosphate buffer at pH 6.2; 5% sodium 5-sulfosalicylate; 0.1% sodium azide; and 0.01% bovine gamma-globulin. The antiserum formulation comprises sheep serum diluted with: 0.1 molar tris buffer at pH 7.5; 0.1% sodium azide; 0.1% bovine gamma-globulin; and 2% ethylene glycol (volume/volume). The dilution buffer comprises: 0.1 molar sodium phosphate at pH 7.5; 0.1% sodium azide; and 0.01% bovine gamma-globulin. The pretreatment solution comprises: 0.01% bovine gamma-globulin; 0.1 molar tris buffer at pH 7.5; 0.1% sodium azide; and 10 mg/mL riboflavin binding protein.\n(§3) A minimum of fifty microliters of urine is required. The calibrators, controls, or unknown samples are pipetted directly into the sample well of the TDx® or ADx® sample cartridge. […] The assay procedure from this point is fully automated.\n(§4) If a manual assay is being performed, then the sample is mixed with the pretreatment solution in dilution buffer and a background reading is taken. The tracer and antibody are then mixed into the test solution. After incubation, a fluorescence polarization reading is taken.\n(§5) The net fluorescence polarization value of each calibrator, control or sample is determined and is printed on the output tape of an instrument such as the Abbott TDx® Analyzer. […] The concentration of each control or sample is read off the stored calibration curve and printed on the output tape.\nCross-reactivity was tested by the method of the present invention for the commonly-used barbiturates. In each case, compounds were assayed on the Abbott Laboratories+ TDx® Clinical Analyzer or the ADx® Drugs of Abuse System after adding a known quantity (200 ng/mL) of the barbiturate test compound to drug-free normal human urine.\n(§6) The five columns in Tables 4(a) and 4(b) indicate the same information as is described above for Table 3(a)."}, "[3]": {"system": "antibodies raised against an immunogen having the structure shown in FIG. 28", "assay": "Fluorescence polarization immunoassay cross-reactivity in drug-free normal human urine, tracer of FIG. 5", "conditions": "for factor which overestimates or underestimates the compound assayed for / percent cross reactivity: 200 ng/mL added; for amount of the test compound found in the resulting human urine: 200 ng/mL added to drug-free urine, secobarbital standard", "protocol": "as §1, §2, §3, §4, §5\nCross-reactivity was tested by the method of the present invention for the commonly-used barbiturates. […]\nThe five columns indicate the following information:\nIn other words, when 200 ng of secobarbital were added to drug-free normal human urine, approximately 200 ng of secobarbital were detected in the resulting urine sample. Thus, the closer the factor is to 1.0, the more accurate the assay is with respect to the particular test compound analyzed.\nThe percent cross-reactivity value presented in column five was obtained by the following mathematical formula: [formula]\nas §6"}}, "data": [{"compound": "C=CCC1(c2ccccc2)C(=O)NC(=O)NC1=O", "note": "[Alphenal]", "values": [{"measurement": "% CR", "setting": "[1]", "result": ">167", "unit": "%"}, {"measurement": "% CR", "setting": "[2]", "result": 94, "unit": "%"}, {"measurement": "Conc. Found", "setting": "[2]", "result": 1130, "unit": "ng/mL"}]}, {"compound": "CCC1(c2ccc(N)cc2)CCC(=O)NC1=O", "note": "(centres unmarked) [Aminoglutethimide]", "values": [{"measurement": "amount of the test compound found", "setting": "[2]; 1 μg/mL added", "result": "ND (None detected: Concentration less than the sensitivity of the assay (60 ng/mL))"}, {"measurement": "amount of the test compound found", "setting": "[2]; 10 μg/mL added", "result": 117, "unit": "ng/mL"}, {"measurement": "factor", "setting": "[2]; 10 μg/mL added", "result": 0.00117}, {"measurement": "percent cross reactivity", "setting": "[2]; 10 μg/mL added", "result": 1.17, "unit": "%"}, {"measurement": "amount of the test compound found", "setting": "[2]; 100 μg/mL added", "result": 412, "unit": "ng/mL"}, {"measurement": "factor", "setting": "[2]; 100 μg/mL added", "result": 0.00041}, {"measurement": "percent cross reactivity", "setting": "[2]; 100 μg/mL added", "result": 0.41, "unit": "%"}]}, {"compound": "CCC1(CCC(C)C)C(=O)NC(=O)NC1=O", "note": "[Amobarbital]", "values": [{"measurement": "factor which overestimates or underestimates the compound assayed for", "setting": "[3]", "result": 1.55}, {"measurement": "percent cross reactivity", "setting": "[3]", "result": 155, "unit": "%"}, {"measurement": "amount of the test compound found in the resulting human urine", "setting": "[3]", "result": 310, "unit": "ng/mL"}, {"measurement": "% CR", "setting": "[1]", "result": 73, "unit": "%"}, {"measurement": "Conc. Found", "setting": "[1]", "result": 870, "unit": "ng/mL"}, {"measurement": "factor which overestimates or underestimates the compound assayed for", "setting": "[2]; 200 ng/mL added", "result": 0.43}, {"measurement": "percent cross reactivity", "setting": "[2]; 200 ng/mL added", "result": 43, "unit": "%"}, {"measurement": "amount of the test compound found in the resulting human urine", "setting": "[2]", "result": 85, "unit": "ng/mL"}, {"measurement": "% CR", "setting": "[2]", "result": 41, "unit": "%"}, {"measurement": "Conc. Found", "setting": "[2]", "result": 490, "unit": "ng/mL"}]}, {"compound": "C=CCC1(C(C)C)C(=O)NC(=O)NC1=O", "note": "[Aprobarbital]", "values": [{"measurement": "% CR", "setting": "[1]", "result": 139, "unit": "%"}, {"measurement": "Conc. Found", "setting": "[1]", "result": 1670, "unit": "ng/mL"}, {"measurement": "factor which overestimates or underestimates the compound assayed for", "setting": "[2]; 200 ng/mL added", "result": 0.62}, {"measurement": "percent cross reactivity", "setting": "[2]; 200 ng/mL added", "result": 62, "unit": "%"}, {"measurement": "amount of the test compound found in the resulting human urine", "setting": "[2]", "result": 123, "unit": "ng/mL"}, {"measurement": "% CR", "setting": "[2]", "result": 77, "unit": "%"}, {"measurement": "Conc. Found", "setting": "[2]", "result": 920, "unit": "ng/mL"}]}, {"compound": "C=CCC1(CC(=C)Br)C(=O)NC(=O)NC1=O", "note": "[Brallobarbital]", "values": [{"measurement": "% CR", "setting": "[1]", "result": 159, "unit": "%"}, {"measurement": "Conc. Found", "setting": "[1]", "result": 1910, "unit": "ng/mL"}, {"measurement": "factor which overestimates or underestimates the compound assayed for", "setting": "[2]; 200 ng/mL added", "result": 0.94}, {"measurement": "percent cross reactivity", "setting": "[2]; 200 ng/mL added", "result": 94, "unit": "%"}, {"measurement": "amount of the test compound found in the resulting human urine", "setting": "[2]", "result": 188, "unit": "ng/mL"}, {"measurement": "% CR", "setting": "[2]", "result": 117, "unit": "%"}, {"measurement": "Conc. Found", "setting": "[2]", "result": 1400, "unit": "ng/mL"}]}, {"compound": "CCC(C)C1(CC)C(=O)NC(=O)NC1=O", "note": "(centres unmarked) [Butabarbital]", "values": [{"measurement": "% CR", "setting": "[1]", "result": ">167", "unit": "%"}, {"measurement": "factor which overestimates or underestimates the compound assayed for", "setting": "[2]; 200 ng/mL added", "result": 2.24}, {"measurement": "percent cross reactivity", "setting": "[2]; 200 ng/mL added", "result": 224, "unit": "%"}, {"measurement": "amount of the test compound found in the resulting human urine", "setting": "[2]", "result": 489, "unit": "ng/mL"}, {"measurement": "% CR", "setting": "[2]", "result": ">167", "unit": "%"}]}, {"compound": "C=CCC1(CC(C)C)C(=O)NC(=O)NC1=O", "note": "[Butalbital]", "values": [{"measurement": "factor which overestimates or underestimates the compound assayed for", "setting": "[3]", "result": 1.00}, {"measurement": "percent cross reactivity", "setting": "[3]", "result": 100, "unit": "%"}, {"measurement": "amount of the test compound found in the resulting human urine", "setting": "[3]", "result": 201, "unit": "ng/mL"}, {"measurement": "% CR", "setting": "[1]", "result": ">167", "unit": "%"}, {"measurement": "factor which overestimates or underestimates the compound assayed for", "setting": "[2]; 200 ng/mL added", "result": 1.13}, {"measurement": "percent cross reactivity", "setting": "[2]; 200 ng/mL added", "result": 113, "unit": "%"}, {"measurement": "amount of the test compound found in the resulting human urine", "setting": "[2]", "result": 227, "unit": "ng/mL"}, {"measurement": "% CR", "setting": "[2]", "result": 167, "unit": "%"}, {"measurement": "Conc. Found", "setting": "[2]", "result": 2000, "unit": "ng/mL"}]}, {"compound": "C=CCC1(C2C=CCC2)C(=O)NC(=O)NC1=O", "note": "(centres unmarked) [Cyclopentobarbital]", "values": [{"measurement": "% CR", "setting": "[1]", "result": ">167", "unit": "%"}, {"measurement": "% CR", "setting": "[2]", "result": ">167", "unit": "%"}]}]}
